# Data as given in patent US6265588A, “Isoxazole and crotonamide derivatives and their use as pharmaceuticals and diagnostics” (Aventis Pharma Deutschland GmbH, priority 1997, dated 2001).
# Structures can show the parent of a compound that is named as a salt.
# Columns and labels:
# RAW 264.7 cells = assay: Comparative affinity chromatography of LPS-stimulated, leflunomide-treated RAW 264.7 cytosol extracts; assay type: cell-based; details: RAW 264.7, 10 ng LPS/ml plus 60 μM A 77 1726B, 24 hours; FRACTOGEL column derivatized according to Example 10
# Source text: The stimulation of the macrophage cell line RAW 264.7 with lipopolysaccharide was used as an in vitro model for inflammatory processes. Lipopolysaccharide ("LPS") is an essential structural constituent of the outer membrane of Gram-negative bacteria and is recognized as such by immune cells of almost all organisms. In particular, macrophages are activated by LPS stimulation to synthesize a number of cytokines such as TNF-α, IL-1 and IL-6. Potential changes in the protein pattern which accompany this stimulation should be prevented by the simultaneous administration of the immunoregulatory preparation leflunomide.
# RAW 264.7 cells were incubated with 10 ng of LPS/ml of culture medium for 24 hours. In the case of LPS-stimulated, leflunomide-treated cells, incubation was simultaneously carried out with 60 μM A 77 1726B for 24 hours. The cells were processed and the cytosolic extracts investigated by affinity chromatography with the aid of the FRACTOGEL® column derivatized according to Example 10. The preparation fractions of these three batches were then applied to an analytical gradient gel and compared with one another.
# A20.2.J = assay: Proliferation test, cell line A20.2.J; assay type: cell-based; details: 72 h, tritium-thymidine incorporation, read-out: concentrations at which a 50% inhibition occurs, A20.2.J
# Procedure: (§1) Clicks/RPMI 1640 medium (50:50) with L-glutamine and without NaHCO3 in powder form for 10 l (Seromed, Biochrom, Berlin, FRG), is dissolved in 9 l of double-distilled water and sterile-filtered into bottles each containing 900 ml.
# (§2) For keeping tumor cells and hybridoma cells, use medium containing 5% FCS is prepared.
# (§3) For keeping cell lines, 900 ml of use medium containing 10% FCS, 10 ml of NEA (non-essential amino acids) solution (Gibco), 10 ml of sodium pyruvate solution (100 mM, Gibco) and 5 ml of 10^-2 M mercaptoethanol are mixed.
# (§4) The tumor cells or cell lines used in the test are taken from the stock solution in the logarithmic growth phase, washed twice with wash medium and suspended in the appropriate medium.
# (§5) The proliferation test is carried out in round-bottom microtiter plates. Compounds of the formula I and interleukins are dissolved in 50 μl each/hollow of the appropriate medium and the cell count (5×10^5) is adjusted with 100 μl/hollow so that a final volume of 200 μl/hollow results. In all tests, the values are determined four times. Cells without preparations and without growth factor are defined as a negative control and cells without preparation with growth factor afford the values for the positive control. The value of the negative control is subtracted from all values determined and the difference of positive control minus negative control is set at 100%.
# (§6) The microtiter plates are incubated at 37° C./5% CO2 for 72 h and the proliferation rate is determined correspondingly as in mitogen-induced lymphocyte proliferation. The cell lines were obtained from the strain collection, American Type Culture Collection ("ATCC").
# EL 4 = assay: Proliferation test, cell line EL 4; assay type: cell-based; details: Mus musculus, EL4; cell line EL 4, 72 h, tritium-thymidine incorporation; read-out: concentrations at which a 50% inhibition occurs, EL 4
# Procedure: as §1, §2, §3, §4, §5, §6
# K562 = assay: Proliferation test, cell line K562; assay type: cell-based; details: Homo sapiens; cell line K562, 72 h, tritium-thymidine incorporation; read-out: concentrations at which a 50% inhibition occurs, K562
# Procedure: as §1, §2, §3, §4
# The proliferation test is carried out in round-bottom microtiter plates. Compounds of the formula I and interleukins are dissolved in 50 μl each/hollow of the appropriate medium and the cell count (5×10^5) is adjusted with 100 μl/hollow so that a final volume of 200 μl/hollow results. In all tests, the values are determined four times. […] The value of the negative control is subtracted from all values determined and the difference of positive control minus negative control is set at 100%.
# The microtiter plates are incubated at 37° C./5% CO2 for 72 h and the proliferation rate is determined correspondingly as in mitogen-induced lymphocyte proliferation. […]
# Bovine serum albumin = Bovine serum albumin (Bos taurus, UniProt P02769); assay: BIAcore binding of serum albumin to chip coated with compound of Example 2; details: compound immobilised on CM5 chip according to Example 8
# Bovine serum albumin, sequence (P02769 25-607): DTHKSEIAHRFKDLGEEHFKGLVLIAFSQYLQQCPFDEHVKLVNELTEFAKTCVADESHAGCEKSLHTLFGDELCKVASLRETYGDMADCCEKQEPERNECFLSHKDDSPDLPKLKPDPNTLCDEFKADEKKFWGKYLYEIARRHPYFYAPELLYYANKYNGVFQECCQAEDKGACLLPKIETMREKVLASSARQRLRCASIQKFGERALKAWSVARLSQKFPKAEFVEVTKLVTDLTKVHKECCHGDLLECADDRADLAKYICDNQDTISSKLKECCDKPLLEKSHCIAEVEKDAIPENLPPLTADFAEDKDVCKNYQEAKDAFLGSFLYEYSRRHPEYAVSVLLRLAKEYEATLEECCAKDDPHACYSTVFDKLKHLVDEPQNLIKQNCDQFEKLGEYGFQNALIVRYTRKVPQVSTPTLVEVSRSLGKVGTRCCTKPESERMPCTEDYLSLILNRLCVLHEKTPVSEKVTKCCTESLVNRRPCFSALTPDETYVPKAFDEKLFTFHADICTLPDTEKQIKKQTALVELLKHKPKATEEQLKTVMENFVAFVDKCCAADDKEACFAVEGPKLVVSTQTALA
# Procedure: (§7) The starting material is a CM5 chip from Pharmacia Biosensor having a carboxymethyldextran surface (BIApplication Handbook, Ed. 1994, Merck AB, Uppsala, Sweden). The coupling steps are all carried out at a flow rate of 5 μl/min. All steps are carried out at 25° C. using Hepes buffered saline ("HBS") pH 7.4 as the running buffer.
# (§8) 1st step: 35 μl of a 1:1 mixture of 0.05 M NHS (N-hydroxysuccinimide) and 0.2 M EDC (N-ethyl-N'-(dimethylaminopropyl)carbodiimide) in order to activate the chip surface.
# (§9) 2nd step: 35 μl of a 40 mM cystamine dihydrochloride solution in 0.1 M sodium borate buffer pH 8.5.
# (§10) 3rd step: 35 μl of ethanolamine hydrochloride pH 8.5 to saturate unoccupied matrix structures.
# (§11) 4th step: 35 μl of 0.1 M dithiothreitol in 0.1 M sodium borate buffer pH 8.5.
# (§12) 5th step: 35 μl of a solution containing compound according to Example 2 (10 mg/ml) in 0.1 M sodium borate buffer pH 7.5.
# (§13) The analysis was carried out essentially as described in Current Biology, Vol. 3, No. 12, pages 913-915 (1993).
# (§14) System: BIAcore® 2000 with corresponding software, Pharmacia Biosensor AB, Uppsala, Sweden
# (§15) Chip: CM5 sensor chip, Pharmacia Biosensor AB
# (§16) Coating: according to Example 8
# (§17) Running buffer: HBS buffer, BIA certified, Pharmacia Biosensor AB
# (§18) Injection: 5 min association phase per 50 μl of the sample to be analyzed.
# (§19) Rinsing time: 180 sec 3 min dissociation phase
# (§20) Regeneration: 2×15 sec using 0.05% sodium dodecylsulfate
# (§21) The term "Resonance Units" is a quantitative unit which is proportional to the amount of protein bound.
# Chicken serum albumin = target: T1, Chicken serum albumin (Gallus gallus, UniProt P19121); assay: as above; details: compound immobilised on CM5 chip according to Example 8
# T1 sequence (P19121 24-615): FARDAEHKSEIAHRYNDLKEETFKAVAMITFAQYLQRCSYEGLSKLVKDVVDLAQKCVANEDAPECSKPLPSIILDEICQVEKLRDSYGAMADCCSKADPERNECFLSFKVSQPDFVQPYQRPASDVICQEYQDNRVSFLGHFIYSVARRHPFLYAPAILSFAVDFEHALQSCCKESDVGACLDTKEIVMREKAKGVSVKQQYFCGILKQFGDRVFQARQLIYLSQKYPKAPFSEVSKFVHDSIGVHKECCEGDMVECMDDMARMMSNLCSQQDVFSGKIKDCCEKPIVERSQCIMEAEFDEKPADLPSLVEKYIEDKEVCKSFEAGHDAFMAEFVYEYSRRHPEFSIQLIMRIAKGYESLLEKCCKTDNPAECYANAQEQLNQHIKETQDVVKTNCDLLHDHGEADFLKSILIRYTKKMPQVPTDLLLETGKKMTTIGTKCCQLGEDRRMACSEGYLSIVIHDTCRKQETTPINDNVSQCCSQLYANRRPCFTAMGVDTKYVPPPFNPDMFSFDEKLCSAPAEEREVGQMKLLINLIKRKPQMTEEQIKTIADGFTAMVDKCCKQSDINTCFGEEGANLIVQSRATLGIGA
# Procedure: as §7, §8, §9, §10, §11, §12, §13, §14, §15, §16, §17, §18, §19, §20, §21
# Donkey serum albumin = Donkey serum albumin (Equus asinus, UniProt Q5XLE4); assay: as above; details: compound immobilised on CM5 chip according to Example 8
# Donkey serum albumin, sequence (Q5XLE4 25-607): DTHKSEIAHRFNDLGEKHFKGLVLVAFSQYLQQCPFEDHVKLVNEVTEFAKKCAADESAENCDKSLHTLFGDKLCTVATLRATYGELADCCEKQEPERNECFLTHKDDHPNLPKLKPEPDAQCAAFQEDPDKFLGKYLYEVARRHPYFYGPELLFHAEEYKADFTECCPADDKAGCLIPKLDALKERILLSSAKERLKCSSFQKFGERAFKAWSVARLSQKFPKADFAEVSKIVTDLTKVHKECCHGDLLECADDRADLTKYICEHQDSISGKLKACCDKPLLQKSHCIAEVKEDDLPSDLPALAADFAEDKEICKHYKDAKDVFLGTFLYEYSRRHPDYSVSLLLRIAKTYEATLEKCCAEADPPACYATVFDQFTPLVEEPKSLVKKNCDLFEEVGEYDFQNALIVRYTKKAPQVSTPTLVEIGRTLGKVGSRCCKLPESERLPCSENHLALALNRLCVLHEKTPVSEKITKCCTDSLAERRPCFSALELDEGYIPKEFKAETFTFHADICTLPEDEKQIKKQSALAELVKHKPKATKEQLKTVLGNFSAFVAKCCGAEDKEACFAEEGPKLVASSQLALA
# Procedure: as §7, §8, §9, §10, §11, §12, §13, §14, §15, §16, §17, §18, §19, §20, §21
# Human serum albumin = Human serum albumin (Homo sapiens, UniProt P02768); assay: as above; details: compound immobilised on CM5 chip according to Example 8
# Human serum albumin, sequence (P02768 25-609): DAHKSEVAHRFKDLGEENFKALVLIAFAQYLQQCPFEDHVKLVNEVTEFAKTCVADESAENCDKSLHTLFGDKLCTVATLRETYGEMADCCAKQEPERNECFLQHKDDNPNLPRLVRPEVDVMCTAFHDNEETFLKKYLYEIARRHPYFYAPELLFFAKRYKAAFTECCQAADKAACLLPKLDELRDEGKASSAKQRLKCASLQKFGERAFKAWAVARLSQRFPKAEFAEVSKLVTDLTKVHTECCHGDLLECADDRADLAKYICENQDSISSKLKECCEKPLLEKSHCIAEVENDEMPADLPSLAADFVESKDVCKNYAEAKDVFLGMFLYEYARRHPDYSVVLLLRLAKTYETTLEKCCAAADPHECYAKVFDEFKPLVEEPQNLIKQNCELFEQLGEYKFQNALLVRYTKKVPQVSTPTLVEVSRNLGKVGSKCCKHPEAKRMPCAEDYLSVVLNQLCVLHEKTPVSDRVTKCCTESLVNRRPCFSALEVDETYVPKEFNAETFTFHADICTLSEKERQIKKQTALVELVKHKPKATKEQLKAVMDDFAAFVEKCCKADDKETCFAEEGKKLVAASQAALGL
# Procedure: as §7, §8, §9, §10, §11, §12, §13, §14, §15, §16, §17, §18, §19, §20, §21
# Mouse serum albumin = Mouse serum albumin (Mus musculus, UniProt P07724); assay: as above; details: compound immobilised on CM5 chip according to Example 8
# Mouse serum albumin, sequence (P07724 25-608): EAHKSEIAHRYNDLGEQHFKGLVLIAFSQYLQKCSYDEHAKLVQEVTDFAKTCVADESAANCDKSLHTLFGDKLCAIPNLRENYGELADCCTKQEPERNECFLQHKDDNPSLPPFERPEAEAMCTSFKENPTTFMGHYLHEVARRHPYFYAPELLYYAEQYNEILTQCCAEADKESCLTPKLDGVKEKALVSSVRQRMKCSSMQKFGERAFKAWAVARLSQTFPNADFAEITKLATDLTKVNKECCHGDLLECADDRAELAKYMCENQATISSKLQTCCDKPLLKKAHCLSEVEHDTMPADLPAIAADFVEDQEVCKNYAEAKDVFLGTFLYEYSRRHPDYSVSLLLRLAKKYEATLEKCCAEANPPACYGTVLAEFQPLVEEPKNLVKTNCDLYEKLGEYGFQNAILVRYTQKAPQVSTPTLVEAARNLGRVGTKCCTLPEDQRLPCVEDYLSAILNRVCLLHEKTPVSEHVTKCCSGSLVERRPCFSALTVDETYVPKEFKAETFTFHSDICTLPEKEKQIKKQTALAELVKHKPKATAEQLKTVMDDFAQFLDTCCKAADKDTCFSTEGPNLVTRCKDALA
# Procedure: as §7, §8, §9, §10, §11, §12, §13, §14, §15, §16, §17, §18, §19, §20, §21
# Rat serum albumin = Rat serum albumin (Rattus norvegicus, UniProt P02770); assay: as above; details: compound immobilised on CM5 chip according to Example 8
# Rat serum albumin, sequence (P02770 25-608): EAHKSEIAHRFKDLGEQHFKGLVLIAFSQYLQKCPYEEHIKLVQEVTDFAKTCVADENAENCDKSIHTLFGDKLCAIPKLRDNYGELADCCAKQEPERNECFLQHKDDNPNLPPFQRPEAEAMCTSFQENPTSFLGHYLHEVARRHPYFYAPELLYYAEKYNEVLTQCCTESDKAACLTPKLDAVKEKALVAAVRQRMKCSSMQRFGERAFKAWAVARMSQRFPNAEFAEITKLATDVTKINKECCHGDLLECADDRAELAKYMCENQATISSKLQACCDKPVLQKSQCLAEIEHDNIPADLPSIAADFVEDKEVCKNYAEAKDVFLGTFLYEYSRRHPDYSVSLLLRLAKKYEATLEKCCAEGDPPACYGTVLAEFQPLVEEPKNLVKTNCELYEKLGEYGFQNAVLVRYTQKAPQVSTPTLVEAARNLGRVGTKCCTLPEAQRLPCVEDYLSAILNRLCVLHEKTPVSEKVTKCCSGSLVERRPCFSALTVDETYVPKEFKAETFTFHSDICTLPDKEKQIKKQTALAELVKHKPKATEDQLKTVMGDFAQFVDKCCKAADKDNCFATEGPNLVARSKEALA
# Procedure: as §7, §8, §9, §10, §11, §12, §13, §14, §15, §16, §17, §18, §19, §20, §21
# Sheep serum albumin = Sheep serum albumin (Ovis aries, UniProt P14639); assay: as above; details: compound immobilised on CM5 chip according to Example 8
# Sheep serum albumin, sequence (P14639 25-607): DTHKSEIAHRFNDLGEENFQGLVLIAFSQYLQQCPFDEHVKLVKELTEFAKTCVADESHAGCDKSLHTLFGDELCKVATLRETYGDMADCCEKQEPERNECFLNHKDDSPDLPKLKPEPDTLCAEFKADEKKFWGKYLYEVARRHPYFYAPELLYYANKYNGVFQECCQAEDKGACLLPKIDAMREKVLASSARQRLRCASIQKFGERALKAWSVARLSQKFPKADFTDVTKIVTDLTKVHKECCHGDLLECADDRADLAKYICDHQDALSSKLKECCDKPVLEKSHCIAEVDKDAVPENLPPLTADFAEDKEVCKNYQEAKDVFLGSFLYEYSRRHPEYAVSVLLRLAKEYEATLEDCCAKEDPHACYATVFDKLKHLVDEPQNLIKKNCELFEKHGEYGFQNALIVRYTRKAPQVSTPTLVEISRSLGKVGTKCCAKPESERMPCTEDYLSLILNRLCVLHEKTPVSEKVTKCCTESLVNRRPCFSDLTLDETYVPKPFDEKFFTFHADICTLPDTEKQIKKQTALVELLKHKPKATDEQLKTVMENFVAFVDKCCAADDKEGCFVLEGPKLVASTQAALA
# Procedure: as §7, §8, §9, §10, §11, §12, §13, §14, §15, §16, §17, §18, §19, §20, §21
# Dihydroorotate DH = Dihydroorotate DH (Homo sapiens, UniProt Q02127); assay: BIAcore binding of dehydrogenases to chip coated with compound of Example 2; details: compound immobilised on CM5 chip
# Dihydroorotate DH, sequence (Q02127 whole entry): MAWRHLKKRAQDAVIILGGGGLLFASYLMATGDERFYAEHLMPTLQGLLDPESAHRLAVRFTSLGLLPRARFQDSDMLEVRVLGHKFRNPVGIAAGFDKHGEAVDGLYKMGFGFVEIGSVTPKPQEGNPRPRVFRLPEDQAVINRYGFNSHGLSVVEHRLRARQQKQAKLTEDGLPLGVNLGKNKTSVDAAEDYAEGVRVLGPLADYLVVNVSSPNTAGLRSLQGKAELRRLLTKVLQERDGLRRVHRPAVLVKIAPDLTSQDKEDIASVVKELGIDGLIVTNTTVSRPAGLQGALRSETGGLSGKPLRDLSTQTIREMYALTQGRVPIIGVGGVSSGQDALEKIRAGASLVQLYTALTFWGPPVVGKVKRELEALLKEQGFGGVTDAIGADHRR
# Procedure: as §7, §8, §9, §10, §11, §12, §13, §14, §15, §16, §17, §18, §19, §20, §21
# (§22) DH represents the enzyme designation dehydrogenase
# [1] = target: Glyceraldehyde phosphate DH (Homo sapiens, UniProt P04406); assay: as above; details: compound immobilised on CM5 chip
# Glyceraldehyde phosphate DH, sequence (P04406 whole entry): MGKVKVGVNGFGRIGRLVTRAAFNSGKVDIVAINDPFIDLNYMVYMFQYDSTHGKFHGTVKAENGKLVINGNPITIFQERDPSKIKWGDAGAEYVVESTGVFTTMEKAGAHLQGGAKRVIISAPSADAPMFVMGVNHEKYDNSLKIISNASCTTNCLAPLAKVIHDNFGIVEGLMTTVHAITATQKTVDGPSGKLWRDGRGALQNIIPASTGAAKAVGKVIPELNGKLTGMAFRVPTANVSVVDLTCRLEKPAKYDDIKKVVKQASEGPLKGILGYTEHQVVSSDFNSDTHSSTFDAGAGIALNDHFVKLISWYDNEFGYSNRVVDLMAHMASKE
# Procedure: as §7, §8, §9, §10, §11, §12, §13, §14, §15, §16, §17, §18, §19, §20, §21, §22
# Pyruvate kinase DH = assay: as above; details: compound immobilised on CM5 chip
# Procedure: as §7, §8, §9, §10, §11, §12, §13, §14, §15, §16, §17, §18, §19, §20, §21, §22
# dehydrogenases = assay: BIAcore comparison of relative binding strengths of the dehydrogenases; details: protein concentration of 1 μM; compound immobilised on CM5 chip
# Procedure: as §13, §14, §15, §16, §17, §18, §19, §20
# The relative binding strengths of the dehydrogenases investigated were compared with one another at a defined protein concentration.
smiles,measurement,setting,value
"CC(O)=C(C#N)C(=O)Nc1ccc(C(F)(F)F)cc1 [A 77 1726B, sodium salt of N-(4-trifluoromethylphenyl)-2-cyano-3-hydroxycrotonamide]",intensity of band around 35 kDa (malate dehydrogenase) in the preparation fraction,RAW 264.7 cells,markedly increased
"Cc1oncc1C(=O)Nc1ccc(NC(=O)CBr)cc1 [Example 1, 5-Methylisoxazole4-carboxylic acid (4-(2-bromoacetylamino)phenyl)amide]",IC50,A20.2.J,0.8 µM
same,IC50,EL 4,0.8 µM
same,IC50,K562,50 µM
CC(O)=C(C#N)C(=O)Nc1ccc(NC(=O)CBr)cc1 [Example 2],IC50,A20.2.J,15 µM
same,IC50,EL 4,6 µM
same,IC50,K562,20 µM
same,"Resonance Units, binding of serum albumin",Bovine serum albumin,50 Resonance Units
same,"Resonance Units, binding of serum albumin",Chicken serum albumin,8 Resonance Units
same,"Resonance Units, binding of serum albumin",Donkey serum albumin,480 Resonance Units
same,"Resonance Units, binding of serum albumin",Human serum albumin,294 Resonance Units
same,"Resonance Units, binding of serum albumin",Mouse serum albumin,151 Resonance Units
same,"Resonance Units, binding of serum albumin",Rat serum albumin,1061 Resonance Units
same,"Resonance Units, binding of serum albumin",Sheep serum albumin,331 Resonance Units
same,"Resonance Units, binding of Dihydroorotate DH",Dihydroorotate DH; enzyme 50 nM,203 Resonance Units
same,"Resonance Units, binding of Dihydroorotate DH",Dihydroorotate DH; enzyme 100 nM,425 Resonance Units
same,"Resonance Units, binding of Dihydroorotate DH",Dihydroorotate DH; enzyme 250 nM,1064 Resonance Units
same,"Resonance Units, binding of Glyceraldehyde phosphate DH",[1]; enzyme 25 nM,69 Resonance Units
same,"Resonance Units, binding of Glyceraldehyde phosphate DH",[1]; enzyme 50 nM,148 Resonance Units
same,"Resonance Units, binding of Glyceraldehyde phosphate DH",[1]; enzyme 100 nM,297 Resonance Units
same,"Resonance Units, binding of Glyceraldehyde phosphate DH",[1]; enzyme 250 nM,603 Resonance Units
same,"Resonance Units, binding of Pyruvate kinase DH",Pyruvate kinase DH; enzyme 50 nM,85 Resonance Units
same,"Resonance Units, binding of Pyruvate kinase DH",Pyruvate kinase DH; enzyme 100 nM,189 Resonance Units
same,"Resonance Units, binding of Pyruvate kinase DH",Pyruvate kinase DH; enzyme 250 nM,505 Resonance Units
same,relative binding strengths of the dehydrogenases,dehydrogenases,"the binding of the dihydroorotate DH was the strongest, followed by lactate DH, glyceraldehyde phosphate DH and pyruvate kinase"
"CC(O)=C(C#N)C(=O)Nc1ccc(OCCCI)cc1 [Example 5, 2-Cyano-3-hydroxybut-2-enecarboxylic acid (4-(3-iodopropoxy)phenyl)amide]",IC50,A20.2.J,50 µM
same,IC50,EL 4,25 µM
